# PubChem BioAssay (NCI)
# Where “and” joins values, the source holds several entries; their conditions need not be identical. Identical values can stand only once.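 96-well plates; 48 h exposure; 5 concentrations. Endpoints by linear interpolation between flanking doses. Not reached: highest tested concentration assigned. GI50 marks 50% less growth. TGI: total growth inhibition.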
# Legend:
# Assay in all cases: NCI anticancer screen, dose series, 48 h
# HCC-2998 colon = system: HCC-2998 colon
# T-47D breast = system: T-47D breast
# BT-549 breast = system: BT-549 breast
# ACHN renal = system: ACHN renal
# SNB-19 CNS = system: SNB-19 CNS
# RPMI-8226 leukemia = system: RPMI-8226 leukemia
# HCT-116 colon = system: HCT-116 colon
# OVCAR-3 ovarian = system: OVCAR-3 ovarian
# COLO 205 colon = system: COLO 205 colon
# 786-0 renal = system: 786-0 renal
SMILES,GI50 (HCC-2998 colon),TGI (HCC-2998 colon),GI50 (T-47D breast),TGI (T-47D breast),GI50 (BT-549 breast),TGI (BT-549 breast),GI50 (ACHN renal),TGI (ACHN renal),GI50 (SNB-19 CNS),TGI (SNB-19 CNS),GI50 (RPMI-8226 leukemia),TGI (RPMI-8226 leukemia),GI50 (HCT-116 colon),TGI (HCT-116 colon),GI50 (OVCAR-3 ovarian),TGI (OVCAR-3 ovarian),GI50 (COLO 205 colon),TGI (COLO 205 colon),GI50 (786-0 renal),TGI (786-0 renal)
C=CN(C)S(C)(=O)=O,> 100 µM,> 100 µM,> 100 µM,> 100 µM,> 100 µM,> 100 µM,> 100 µM,> 100 µM,> 100 µM,> 100 µM,> 100 µM,> 100 µM,> 100 µM,> 100 µM,> 100 µM,> 100 µM,> 100 µM,> 100 µM,> 100 µM,> 100 µM
Cc1cc(O)cc(C)c1/C=C/c1cncc(-c2nn[nH]n2)c1,> 25 µM,> 25 µM,> 25 µM,> 25 µM,> 25 µM,> 25 µM,> 25 µM,> 25 µM,> 25 µM,> 25 µM,> 25 µM,> 25 µM,> 25 µM,> 25 µM,> 25 µM,> 25 µM,> 25 µM,> 25 µM,> 25 µM,> 25 µM
C[C@H](CCCNCCCNCCCN)[C@H]1CC[C@H]2[C@@H]3[C@H](OCCCN)C[C@H]4C[C@H](OCCCN)CC[C@]4(C)[C@H]3C[C@H](OCCCN)[C@]12C,0.653 µM,5.02 µM,2.59 µM,> 37 µM,0.923 µM,5.1 µM,1.41 µM,27.7 µM,1.92 µM,> 83.4 µM,0.418 µM,1.54 µM,0.482 µM,10.2 µM,14.6 µM,> 62.5 µM,1.1 µM,15.3 µM,0.824 µM,5.49 µM
O=c1oc2ccc(-n3c(=O)c4ccccc4c4ccccc4c3=O)cc2c2ccccc12,,> 100 µM,,> 100 µM,,> 100 µM,,> 100 µM,,> 100 µM,,> 100 µM,,> 100 µM,,> 100 µM,,> 100 µM,,> 100 µM
O=C(NO)c1ccc(Cn2c(=O)n(-c3ccccc3F)c(=O)c3ccccc32)cc1,1.42 µM,2.96 µM,1.38 µM,5.92 µM,1.9 µM,4.13 µM,2.04 µM,5.59 µM,2.54 µM,18.2 µM,1.19 µM,18.9 µM,1.14 µM,3.19 µM,2.15 µM,6.41 µM,1.39 µM,3.76 µM,1.82 µM,3.65 µM
COc1cc(OC)c(NC(=O)c2cc3ccccc3cc2O)cc1Cl,3.73 µM,13.8 µM,2.29 µM,> 100 µM,4.33 µM,66 µM,2.51 µM,7.19 µM,4.82 µM,> 100 µM,2.82 µM,10.9 µM,2.91 µM,10.1 µM,2.02 µM,4.74 µM,3.91 µM,14.5 µM,4.51 µM,> 100 µM
Cc1ncsc1-c1ccc(CNC(=O)[C@@H]2C[C@@H](O)CN2C(=O)[C@@H](NC(=O)C2(C#N)CC2)C(C)(C)C)cc1,> 100 µM,> 100 µM,> 100 µM,> 100 µM,> 100 µM,> 100 µM,> 100 µM,> 100 µM,> 100 µM,> 100 µM,62.4 µM,> 100 µM,> 100 µM,> 100 µM,> 100 µM,> 100 µM,> 100 µM,> 100 µM,> 100 µM,> 100 µM
C=C1C(=O)O[C@@H]2C1C[C@@H](O)C(=C)CC/C=C(\C)CCC[C@H](C)[C@H]2OC(C)=O (stereo partly drawn),15.4 µM,29.2 µM,6.46 µM,42.3 µM,2.73 µM,7.46 µM,1.69 µM,3.85 µM,27.1 µM,> 100 µM,2.52 µM,6.61 µM,1.4 µM,3.06 µM,3.38 µM,12.6 µM,2.93 µM,> 100 µM,4.84 µM,16.3 µM
CC(=O)Oc1cc2c(OC(C)=O)c(-c3c(C)cc4c(C(C)C)c(OC(C)=O)c(OC(C)=O)cc4c3OC(C)=O)c(C)cc2c(C(C)C)c1OC(C)=O,4.23 µM and 5.12 µM and 18.4 µM,8.3 µM and 9.51 µM and 34.3 µM,> 100 µM and 10.2 µM and 19.1 µM,> 100 µM and > 25.2 µM and 36.1 µM,4.07 µM and 5.16 µM and 9.94 µM,9.05 µM and 10.2 µM and 26.6 µM,5.56 µM and 4.86 µM and 8.79 µM,13.2 µM and 11.6 µM and 22.8 µM,15.3 µM and 8.77 µM and 19.6 µM,> 31.7 µM and 25.2 µM and 47.5 µM,5.36 µM and 5.79 µM and 7.94 µM,14 µM and 15.4 µM and 20.4 µM,6.22 µM and 6.63 µM and 7.46 µM,14.3 µM and 15.9 µM and 14.4 µM,4.6 µM and 6.15 µM and 8.52 µM,13.1 µM and 11.5 µM and 21 µM,9.61 µM and 5.5 µM and 10.1 µM,13 µM and 21.3 µM,7.26 µM and 6.91 µM and 11.4 µM,20.8 µM and 16.5 µM and 35.4 µM
NC1=NCCN1CC(=O)O,> 10000 µM,> 10000 µM,> 10000 µM,> 10000 µM,> 10000 µM,> 10000 µM,> 10000 µM,> 10000 µM,> 10000 µM,> 10000 µM,> 10000 µM,> 10000 µM,> 10000 µM,> 10000 µM,> 10000 µM,> 10000 µM,> 10000 µM,> 10000 µM,> 10000 µM,> 10000 µM
O=S(=O)(Nc1cc(Cl)ccc1Cl)c1ccc(-c2cnc(C3CC3)o2)cc1,3.03 µM,25.2 µM,1.94 µM,> 100 µM,0.449 µM,14.9 µM,4.1 µM,76.6 µM,1.51 µM,> 100 µM,2.44 µM,> 100 µM,0.453 µM,15 µM,0.512 µM,14.8 µM,1.84 µM,13.4 µM,0.539 µM,20.9 µM
O=C(NCc1ccco1)c1ccc(NC2=C(Cl)C(=O)N(Cc3ccccc3)C2=O)cc1,22.9 µM,37.4 µM,41 µM,> 100 µM,17.9 µM,36.5 µM,,,21.3 µM,45.6 µM,8.52 µM,23.6 µM,10.2 µM,21.8 µM,16.7 µM,31.3 µM,28.4 µM,80.1 µM,12.6 µM,28.2 µM
